Test results taken from patent US20140221676A1, “COMPOSITIONS AND METHODS FOR TREATING AND/OR PREVENTING CARDIOVASCULAR DISEASE” (Amarin Pharmaceuticals Ireland Limited, priority 2013, published 2014).
Entries after “also recorded” stand apart in the source; their conditions may differ.

Columns and labels:
Format in all cases: in vivo, human
[1] = Phase 1 open-label multidose pharmacokinetic study of IPE, EPA in plasma and RBCs by LC-MS/MS
Protocol: A study to characterize the pharmacokinetics of ethyl eicosapentaenoate in plasma and red blood cells after multiple-dose administration of IPE at 2 g per day and 4 g per day was performed in healthy adult male and female humans.
The study was a phase 1, open-label, randomized, multidose study in healthy, nonsmoking men and women aged >18 and ≦55 years with a body mass index (BMI)>18 and ≦30 kg/m^2. Exclusion criteria included use within 6 weeks prior to randomization through study end of any lipid-altering medications or supplements, including statins, niacin at levels of greater than 200 mg/day, fibrates, ezetimibe, bile acid sequestrants, omega-3 fatty acid medications, and supplements or foods enriched with omega-3 fatty acids (no more than 2 servings of fish per week were permitted).
Following a 14-day screening period, subjects entered a 28-day treatment period and were randomized to one of four IPE dose regimen treatment groups as shown in FIG. 1. Group 1 received IPE 2 g daily (1000-mg capsules; twice-daily [BID] regimen); Group 2 received IPE 4 g daily (1000-mg capsules; BID regimen); Group 3 received IPE 2 g daily (1000-mg capsules; once-daily [QD] regimen); and Group 4 received IPE 2 g daily (500-mg capsules; BID regimen). Treatment was administered orally, with or following a meal in the morning and evening for BID regimens, or in the morning only for the QD regimen. Subjects then entered an 18-day post-treatment pharmacokinetic sampling period.
The safety population was defined as all randomized subjects who received at least one dose of study drug. […]
Fasting EPA concentrations were measured with a validated liquid chromatography with tandem mass spectrometry (LC-MS/MS) method in plasma and RBCs prior to the morning dose (days 1, 14, 26, 28) and at serial time points (1, 3, 5, 6, 8, 10, 12, 24, 48, 72, 120, 192, 312, and 432 hours) after the morning dose on day 28. […] In RBCs, EPA was measured in the cell membrane, where EPA is mainly incorporated in phospholipids.
For total EPA in plasma and RBCs, lipids were isolated by acid/methanol/chloroform extraction followed by centrifugation and purified by isohexane and solid-phase extraction after confirmed complete lipid hydrolysis and transmethylation (acid/methanol, 50° C. overnight). […] Quantitation utilized linolenic acid as an internal standard and EPA as the standard for the calibration curve; for total plasma EPA, RBC EPA, and unesterified EPA, the lower limits of quantitation were 10 μg/mL, 5 μg/mL, and 50 ng/mL, respectively. EPA concentrations were measured at Charles River Laboratories Ltd (Elphinstone Research Center, Tranent, Edinburgh, Scotland, UK). […]

[2] = Safety and tolerability in the phase 1 IPE pharmacokinetic study
Description: The safety population was defined as all randomized subjects who received at least one dose of study drug. The per-protocol population was defined as all safety population subjects who completed the 28-day treatment period without any major protocol deviations, and who provided blood samples for EPA analyses.
Safety assessments consisted of adverse event (AE) monitoring, clinical laboratory measurements (chemistry, hematology, and urinalysis) 12-lead electrocardiographic measurements, vital signs (systolic and diastolic blood pressure, heart rate, respiratory rate, and oral body temperature) and physical examination findings.

[3] = test system: inflammation-associated end points (ICAM-1, Ox-LDL, Lp-PLA2, IL-6, hsCRP); experiment: MARINE study, inflammation-associated end points (ITT)
Description: A summary of baseline values, end-of-treatment values, and median placebo-adjusted percent change from baseline to study end of inflammation-associated end points in each of the three ITT sub-populations is shown in Table 5. […]

SMILES: CC/C=C\C/C=C\C/C=C\C/C=C\C/C=C\CCCC(=O)OCC [IPE, ethyl eicosapentaenoate]
- dose linearity of exposure (dose-normalized AUC and maximum concentration) ([1]; IPE 2 g/day vs 4 g/day (Group 1 vs Group 2), total plasma, total RBCs, unesterified EPA): Dose linearity was observed; also recorded: dose-proportional
- effect of gender on exposure parameters ([1]; in vivo): no consistent gender effect was observed
- comparison of exposure between QD and BID regimens ([1]; same daily dose 2 g, Group 1 vs Group 3): similarity between QD and BID regimens
- comparison of exposure between 500-mg and 1000-mg formulations ([1]; same daily dose 2 g, Group 1 vs Group 4): comparable exposures at comparable doses
- subjects reporting at least one adverse event ([2]; Group 1, IPE 2 g daily, 1000-mg capsules BID): 25.0%
- subjects reporting at least one adverse event ([2]; Group 2, IPE 4 g daily, 1000-mg capsules BID): 33.3%
- subjects reporting at least one adverse event ([2]; Group 3, IPE 2 g daily, 1000-mg capsules QD): 25.0%
- subjects reporting at least one adverse event ([2]; Group 4, IPE 2 g daily, 500-mg capsules BID): 33.3%
- changes in laboratory, electrocardiographic, or physical examination findings ([2]; all groups): no clinically meaningful changes
- intensity of adverse events ([2]; all groups): mild or moderate in intensity
- subjects reporting at least one adverse event ([2]; all groups, safety population n = 48): 29.2%
- ICAM-1 median placebo-adjusted % change from baseline ([3]; AMR101 2 g/day vs placebo): −2.3%
- IL-6 median placebo-adjusted % change from baseline ([3]; AMR101 2 g/day vs placebo): 4.7%
- Lp-PLA2 median placebo-adjusted % change from baseline ([3]; AMR101 2 g/day vs placebo): −5.1%
- Ox-LDL median placebo-adjusted % change from baseline ([3]; AMR101 2 g/day vs placebo): −3.0%
- hsCRP median placebo-adjusted % change from baseline ([3]; AMR101 2 g/day vs placebo): −10.1%
- ICAM-1 change from baseline ([3]; AMR101 2 g/day, median): −0.4%
- ICAM-1 end-of-treatment value ([3]; AMR101 2 g/day, median): 257.5 ng/mL
- IL-6 change from baseline ([3]; AMR101 2 g/day, median): 3.4%
- IL-6 end-of-treatment value ([3]; AMR101 2 g/day, median): 3.0 pg/mL
- Lp-PLA2 change from baseline ([3]; AMR101 2 g/day, median): −5.1%
- Lp-PLA2 end-of-treatment value ([3]; AMR101 2 g/day, median): 220.5 ng/mL
- Ox-LDL change from baseline ([3]; AMR101 2 g/day, median): 0.4%
- Ox-LDL end-of-treatment value ([3]; AMR101 2 g/day, median): 75.2 U/L
- hsCRP change from baseline ([3]; AMR101 2 g/day, median): 25.1%
- hsCRP end-of-treatment value ([3]; AMR101 2 g/day, median): 2.4 mg/L
- ICAM-1 median placebo-adjusted % change from baseline ([3]; AMR101 4 g/day vs placebo): −2.5%
- IL-6 median placebo-adjusted % change from baseline ([3]; AMR101 4 g/day vs placebo): 11.0%
- Lp-PLA2 median placebo-adjusted % change from baseline ([3]; AMR101 4 g/day vs placebo): −13.6%
- Ox-LDL median placebo-adjusted % change from baseline ([3]; AMR101 4 g/day vs placebo): −6.4%
- hsCRP median placebo-adjusted % change from baseline ([3]; AMR101 4 g/day vs placebo): −36.0%
- ICAM-1 change from baseline ([3]; AMR101 4 g/day, median): −0.9%
- ICAM-1 end-of-treatment value ([3]; AMR101 4 g/day, median): 253.0 ng/mL
- IL-6 change from baseline ([3]; AMR101 4 g/day, median): 0.3%
- IL-6 end-of-treatment value ([3]; AMR101 4 g/day, median): 2.4 pg/mL
